The test system of the assay is KB. Nature of the assay: Cytotoxicity against human KB cells. Format: functional. As to conditions: read-out: ED50 (the source's name).

≈ marks a conversion by molar mass, not a printed value.

With `CC(=O)OC[C@]12[C@H](OC(C)=O)[C@H](OC(C)=O)[C@@H]3[C@@H](OC(C)=O)[C@@]14O[C@@]3(C)COC(=O)c1cccnc1[C@H](C)[C@H](C)C(=O)O[C@@H]([C@H](OC(=O)c1ccc(=O)n(C)c1)[C@@H]2OC(C)=O)[C@@]4(C)O` [EMARGINATINE A], the EC50 came out at 4 µg/mL (≈ 4.45 µM).
To `CC(=O)OC[C@]12[C@H](OC(=O)c3ccccc3)[C@@H](OC(C)=O)[C@@H]3[C@@H](OC(C)=O)[C@@]14O[C@@]3(C)COC(=O)c1cccnc1[C@H](C)[C@H](C)C(=O)O[C@@H]([C@H](OC(=O)c1ccc(=O)n(C)c1)[C@@H]2OC(C)=O)[C@@]4(C)O` [EMARGINATINE B] belongs 0.4 µg/mL (≈ 0.416 µM).

The values above are taken from ChEMBL document CHEMBL1151148, “Antitumor agents, 112. Emarginatine B, a novel potent cytotoxic sesquiterpene pyridine alkaloid from Maytenus emarginata” (1990).
